PubChem BioAssay (NCI)
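Test compounds were applied to cells in 96-well plates for 48 hours at 5 doses. TGI marks complete inhibition of growth.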

Tests used:
Assay in all cases: NCI-60 cell line screen, 48 h
SF-268 CNS = test system: SF-268 CNS
SK-OV-3 ovarian = test system: SK-OV-3 ovarian
LXFL 529 NSCLC = test system: LXFL 529 NSCLC
UO-31 renal = test system: UO-31 renal
A549 NSCLC = test system: A549 NSCLC
COLO 205 colon = test system: COLO 205 colon
KM12 colon = test system: KM12 colon
XF 498 CNS = test system: XF 498 CNS
OVCAR-3 ovarian = test system: OVCAR-3 ovarian
SNB-75 CNS = test system: SNB-75 CNS
IGROV1 ovarian = test system: IGROV1 ovarian
A498 renal = test system: A498 renal
SN12C renal = test system: SN12C renal
DMS 114 small cell lung = test system: DMS 114 small cell lung
RPMI-8226 leukemia = test system: RPMI-8226 leukemia
SW-620 colon = test system: SW-620 colon
ACHN renal = test system: ACHN renal
M19-MEL melanoma = test system: M19-MEL melanoma
HCT-116 colon = test system: HCT-116 colon
HCT-15 colon = test system: HCT-15 colon
OVCAR-8 ovarian = test system: OVCAR-8 ovarian
SF-539 CNS = test system: SF-539 CNS
KM20L2 colon = test system: KM20L2 colon
786-0 renal = test system: 786-0 renal
U251 CNS = test system: U251 CNS
CCRF-CEM leukemia = test system: CCRF-CEM leukemia
SK-MEL-5 melanoma = test system: SK-MEL-5 melanoma
NCI-H23 lung = test system: NCI-H23 lung
HOP-92 NSCLC = test system: HOP-92 NSCLC
LOX IMVI melanoma = test system: LOX IMVI melanoma
HCC-2998 colon = test system: HCC-2998 colon
NCI-H226 lung = test system: NCI-H226 lung
HL-60(TB) leukemia = test system: HL-60(TB) leukemia
SNB-19 CNS = test system: SNB-19 CNS
DMS 273 small cell lung = test system: DMS 273 small cell lung
SK-MEL-2 melanoma = test system: SK-MEL-2 melanoma
UACC-257 melanoma = test system: UACC-257 melanoma
NCI-H522 lung = test system: NCI-H522 lung
M14 melanoma = test system: M14 melanoma
EKVX NSCLC = test system: EKVX NSCLC
HOP-62 NSCLC = test system: HOP-62 NSCLC
UACC-62 melanoma = test system: UACC-62 melanoma
OVCAR-4 ovarian = test system: OVCAR-4 ovarian
K-562 leukemia = test system: K-562 leukemia
CAKI-1 renal = test system: CAKI-1 renal
SR leukemia = test system: SR leukemia
MOLT-4 leukemia = test system: MOLT-4 leukemia
DLD-1 colon = test system: DLD-1 colon
HOP-18 NSCLC = test system: HOP-18 NSCLC
MALME-3M melanoma = test system: MALME-3M melanoma
NCI-H460 lung = test system: NCI-H460 lung
OVCAR-5 ovarian = test system: OVCAR-5 ovarian
HT29 colon = test system: HT29 colon
SF-295 CNS = test system: SF-295 CNS
TK-10 renal = test system: TK-10 renal
SNB-78 CNS = test system: SNB-78 CNS
SK-MEL-28 melanoma = test system: SK-MEL-28 melanoma
RXF 393 renal = test system: RXF 393 renal

Measured: TGI

CC(=O)Nc1ccc(C(=O)NN2C(=O)C(Cl)C2c2cc(Br)cc(Br)c2O)cc1 (stereo not drawn)
> 100 µM: SF-268 CNS | SK-OV-3 ovarian | LXFL 529 NSCLC | UO-31 renal | A549 NSCLC | COLO 205 colon | KM12 colon | XF 498 CNS | OVCAR-3 ovarian | SNB-75 CNS | IGROV1 ovarian | A498 renal | SN12C renal | DMS 114 small cell lung | RPMI-8226 leukemia | SW-620 colon | ACHN renal | M19-MEL melanoma | HCT-116 colon | HCT-15 colon | OVCAR-8 ovarian | SF-539 CNS | KM20L2 colon | 786-0 renal | U251 CNS | CCRF-CEM leukemia | SK-MEL-5 melanoma | NCI-H23 lung | HOP-92 NSCLC | LOX IMVI melanoma | HCC-2998 colon | NCI-H226 lung | HL-60(TB) leukemia | SNB-19 CNS | DMS 273 small cell lung | SK-MEL-2 melanoma | UACC-257 melanoma | NCI-H522 lung | M14 melanoma | EKVX NSCLC | HOP-62 NSCLC | UACC-62 melanoma | OVCAR-4 ovarian | K-562 leukemia | CAKI-1 renal | SR leukemia | MOLT-4 leukemia | DLD-1 colon | HOP-18 NSCLC | MALME-3M melanoma | NCI-H460 lung | OVCAR-5 ovarian

Cc1ccccc1Cn1nc2ccccc2cc1=O
> 100 µM: SF-268 CNS | SK-OV-3 ovarian | UO-31 renal | A549 NSCLC | COLO 205 colon | KM12 colon | XF 498 CNS | OVCAR-3 ovarian | SNB-75 CNS | IGROV1 ovarian | A498 renal | HT29 colon | SN12C renal | DMS 114 small cell lung | RPMI-8226 leukemia | SW-620 colon | SF-295 CNS | TK-10 renal | ACHN renal | M19-MEL melanoma | HCT-116 colon | HCT-15 colon | OVCAR-8 ovarian | SF-539 CNS | KM20L2 colon | 786-0 renal | U251 CNS | CCRF-CEM leukemia | SK-MEL-5 melanoma | NCI-H23 lung | HOP-92 NSCLC | LOX IMVI melanoma | HCC-2998 colon | NCI-H226 lung | SNB-19 CNS | SNB-78 CNS | DMS 273 small cell lung | SK-MEL-2 melanoma | UACC-257 melanoma | M14 melanoma | EKVX NSCLC | HOP-62 NSCLC | UACC-62 melanoma | OVCAR-4 ovarian | K-562 leukemia | SK-MEL-28 melanoma | CAKI-1 renal | DLD-1 colon | HOP-18 NSCLC | MALME-3M melanoma | NCI-H460 lung | OVCAR-5 ovarian

CCCC(=O)Nc1ccc(O)c2c1C1CCCCCC21 (stereo not drawn)
> 100 µM: SF-268 CNS | SK-OV-3 ovarian | LXFL 529 NSCLC | UO-31 renal | RXF 393 renal | A549 NSCLC | COLO 205 colon | KM12 colon | XF 498 CNS | SNB-75 CNS | HT29 colon | SN12C renal | DMS 114 small cell lung | RPMI-8226 leukemia | SW-620 colon | SF-295 CNS | TK-10 renal | ACHN renal | M19-MEL melanoma | HCT-116 colon | HCT-15 colon | OVCAR-8 ovarian | KM20L2 colon | 786-0 renal | U251 CNS | CCRF-CEM leukemia | SK-MEL-5 melanoma | NCI-H23 lung | LOX IMVI melanoma | NCI-H226 lung | HL-60(TB) leukemia | SNB-19 CNS | SNB-78 CNS | DMS 273 small cell lung | SK-MEL-2 melanoma | UACC-257 melanoma | NCI-H522 lung | M14 melanoma | EKVX NSCLC | HOP-62 NSCLC | UACC-62 melanoma | OVCAR-4 ovarian | K-562 leukemia | SK-MEL-28 melanoma | SR leukemia | MOLT-4 leukemia | HOP-18 NSCLC | MALME-3M melanoma | NCI-H460 lung
